US7335776B2, “Remedies for depression containing EP1 antagonist as the active ingredient” (Ono Pharmaceutical Co., Ltd., priority 2002, dated 2008)

Assays:
[1] = tested on: male ddy mice; test: Tail-suspension test in mice; format: in vivo; conditions: for Inhibition (%): inhibition of immobility vs. vehicle; for Inhibition (%) / Immobility time: 10 mg/kg orally 1 hour before measurement, ten animals per group; for Immobility time / Immobility time as compared with that in the vehicle treated group: tail suspension; for Immobility time: immobility time for 10 minutes; for Immobility time as compared with that in the vehicle treated group: rate of inhibition statistically significant
Protocol: It was confirmed by the following experiments that the compounds of formula of (IA)-(IK) could be useful for the treatment of depression. The following paper can be referred to about a tail-suspension test and its testing system in mice. • 1) Psychopharmacology (1985) 85: 367-370 • 2) Prog. Neuro-Psychopharmacol. & Biol. Psychiat. 1987 Vol. 11, 659-671 (1) Tail-Suspension Test in Mice
The test compound (10 mg/kg animal body weight) was administered orally to male ddy mice weighing around 30 g 1 hour before the beginning of measurement. The mice were suspended by their tail on the hook of Tail Suspension TEST System (Neuroscience, Inc., Model NS-TST01-SS2) using adhesive tape. The subsequent immobility time for 10 minutes was measured. If the mice have none of administration, they get about 300 seconds as an immobility time in this experiment. Generally, the medicine having an anti-depressive action shortens this immobility time.
In addition, in any case, ten animals were used for each group.

[2] = Toxicity (LD50 by oral administration to mouse); conditions: in vivo
Protocol: The toxicity of the compounds of the present invention is very low and therefore, it is confirmed that these compounds are safe for use as medicine. For example, LD50 values of the compound A and B of the present invention by oral administration to mouse are 2000 mg/kg and over.

[3] = tested on: male SD (IGS) rat; test: Forced swim test in rats; format: in vivo; conditions: for Immobility time / Immobility time as compared with that in the vehicle treated group: forced swim; for Immobility time: 5 minutes observation on 2nd day; for Immobility time / Inhibition (%): test compound orally 5 mL/kg (desipramine intraperitoneally 2 mL/kg) after 1st examination and 1 hour before 2nd, twelve animals per group; for Immobility time as compared with that in the vehicle treated group: rate of inhibition statistically significant; for Inhibition (%): inhibition of immobility vs. vehicle
Protocol: The seven-week old male SD (IGS) rat freely fed was solely put into the forced swimming equipment (the cylinder (Neuroscience, Inc.) of diameter of inner 19 cm, and height 40 cm, depth-sounding 17 cm, water temperature of 23±1° C.) manufactured with the transparent acrylics board, and let it swim for 15 minutes. The rat was immediately dried after the end of trial and was returned to the home cage. […] In this time, the behavior of rat is distinguished by immobile state, struggling, submerging and swimming. The immobility time, period that rats were floating on the water by taking their head outside of the water without stroking by both legs, were measured. In addition, the water in equipment was exchanged for every trial. Moreover, one trial was conducted for each animal.
The test compound was administered orally by 5 mL/kg dosage immediately after the end of the examination on the 1st, and 1 hour before the examination on the 2nd. And, the positive control compound (desipramine; […]) was similarly administered intraperitoneally by 2 mL/kg dosage immediately after the end of the examination on the 1st, and 1 hour before the examination on the 2nd.
In addition, in any case, twelve animals were used for each group.

Row | Compound | Inhibition (%) [1] [%] | Immobility time [1] [s] | Immobility time as compared with that in the vehicle treated group [1] | LD50 [2] [mg/kg] | Immobility time [3] [s] | Immobility time as compared with that in the vehicle treated group [3] | Inhibition (%) [3] [%]
1 | Cc1cc(Cl)ccc1S(=O)(=O)NC[C@H]1C2CCC(CC2)[C@H]1/C=C\CCCC(=O)O [Compound A, 6-[(2S, 3S)-3-(4-chloro-2-methylphenylsulfonylaminomethyl)-bicyclo[2.2.2]octan-2-yl]-5Z-hexenoic acid] | 30 ± 7 | 202 ± 20 | shortened |  |  |  | 
2 | Cc1ccc(S(=O)(=O)N(c2ccc(C(F)(F)F)cc2OCc2ccc(C(=O)O)cc2)C(C)C)o1 [Compound B, 4-[2-[N-isopropyl-N-(5-methyl-2-furylsulfonyl)amino]-5-trifluoromethylphenoxymethyl]benzoic acid] | 35 ± 8 | 194 ± 23 | shortened | ≥ 2000 | 163 ± 21 | shortened | 31 ± 9
3 | CC(C)CN(c1ccc(C(F)(F)F)cc1OCc1ccc(C=CC(=O)O)cc1)S(=O)(=O)c1ccco1 [Compound C, 4-[2-(N-isobutyl-2-furanylsulfonylamino)-5-trifluoromethylphenoxymethyl]cinnamic acid] | 23 ± 7 | 212 ± 20 | shortened |  |  |  | 
4 | Cc1ccc(S(=O)(=O)N(CC(C)C)c2cc(C)c(C)cc2OCc2ccc(C(=O)O)cc2)o1 [Compound D, 4 [2-[N-isobutyl-N-(5-methyl-2-furylsulfonyl)amino]-4,5-dimethylphenoxymethyl]benzoic acid] | 27 ± 8 | 217 ± 24 | shortened |  |  |  | 
5 | Cc1ccc(S(=O)(=O)N(CC(C)C)c2cc(C)c(C)cc2OCc2ccc(C(=O)O)cc2C)o1 [Compound E, 3-methyl-4-[2-[N-isobutyl-N-(5-methyl-2-furylsulfonyl)amino]4,5-dimethylphenoxymethyl]benzoic acid] | 38 ± 12 | 185 ± 36 | shortened |  |  |  | 
6 | Cc1ccc(S(=O)(=O)N(CC(C)C)c2cc3c(cc2OCc2ccc(/C=C/C(=O)O)cc2)CCC3)o1 [Compound F, 4-[6-[N-isobutyl-N-(5-methyl-2-furylsulfonyl)amino]indan-5-yloxymethyl]cinnamic acid] | 47 ± 9 | 160 ± 26 | shortened |  |  |  | 
7 | CCCN(c1cc(C)c(C)cc1OCc1ccc(C(=O)O)cc1)S(=O)(=O)c1ccc(C)o1 [Compound H, 4-[4,5-dimethyl-2-[N-(5-methyl-2-furylsulfonyl)-N-propylamino]phenoxymethyl]benzoic acid] |  |  |  |  | 156 ± 21 | shortened | 35 ± 9
8 | Cc1ccc(C(=O)N(c2ccc(C(F)(F)F)cc2OCc2ccc(/C=C/C(=O)O)cc2)C(C)C)o1 [Compound J, 4-[5-trifluoromethyl-2-[N-(5-methyl-2-furylcarbonyl)-N-isopropylamino]phenoxymethyl]cinnamic acid] |  |  |  |  | 194 ± 16 | shortened | 20 ± 7
9 | Cc1csc(S(=O)(=O)N(CC(C)C)c2cc3c(cc2OCc2ccc(C(=O)O)cc2)CCC3)n1 [Compound K, 4-[6-[N-isobutyl-N-(4-methyl-2-thizolylsulfonyl)amino]indan-5-yloxymethyl]benzoic acid] |  |  |  |  | 172 ± 17 | shortened | 29 ± 7
10 | CNCCCN1c2ccccc2CCc2ccccc21 [Desipramine, desipramine, reference compound] |  |  |  |  | 112 ± 15 |  | 53 ± 6
